Each block holds one molecule with its values, some of them ahead of it.
How the values were obtained:
[1] = tested on: Compound-3 metabolism in human liver microsomes; experiment: Inhibition of Compound-3 metabolism in HLM by selective chemical inhibitors of CYP isozymes; assay type: in vitro ADME; conditions: HLM 0.2 mg/mL, 1 μM Compound-3; HET-0016 1 µM, ketoconazole 1 µM, quercetin 10 µM, other inhibitors at the concentrations of b45
Protocol: Incubation contained 0.2 mg/mL human liver microsomes, 100 mM phosphate buffer (pH 7.4), 1 mM NADPH, 1 μM Compound-3, and inhibitors at specified concentrations. Compound-3 remaining was calculated based on concentrations after incubation in the presence or absence of respective inhibitors.

CYP4F2 [2] = biological target: T1, CYP4F2 (Homo sapiens, UniProt P78329); experiment: CYP4F2-mediated drug interaction (inhibition of CYP4F2); assay type: in vitro ADME; conditions: substrate Compound-3 1 μM, CYP4F2 10 nM, 10 min, M4 formation; read-out: IC50, inhibition of CYP4F2 mediated metabolism of Compound-3
T1 construct: purchased Corning Gentest
T1 sequence (P78329 5-520): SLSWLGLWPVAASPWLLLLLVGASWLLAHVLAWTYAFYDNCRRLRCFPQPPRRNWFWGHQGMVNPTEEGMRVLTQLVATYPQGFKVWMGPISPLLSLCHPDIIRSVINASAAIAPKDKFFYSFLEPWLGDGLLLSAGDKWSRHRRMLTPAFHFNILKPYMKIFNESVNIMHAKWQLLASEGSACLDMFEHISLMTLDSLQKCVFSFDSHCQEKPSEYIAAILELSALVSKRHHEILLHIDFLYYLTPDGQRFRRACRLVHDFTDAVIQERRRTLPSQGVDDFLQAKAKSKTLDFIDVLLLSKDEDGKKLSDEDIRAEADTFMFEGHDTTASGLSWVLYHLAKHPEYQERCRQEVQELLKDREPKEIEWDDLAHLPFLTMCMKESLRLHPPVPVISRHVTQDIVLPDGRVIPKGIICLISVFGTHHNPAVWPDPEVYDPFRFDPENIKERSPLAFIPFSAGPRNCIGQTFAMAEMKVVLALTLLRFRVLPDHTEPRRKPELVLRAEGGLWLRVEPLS
Protocol: CYP4F2-mediated drug interactions were examined in two separate setting: pafuramidine as the substrate and Compound-3 as the inhibitor; and Compound-3 as the substrate and pafuramidine as the inhibitor. The reaction system contained 10 nM CYP4F2, 100 mM phosphate buffer (pH 7.4), 1 mM NADPH, and substrate (pafuramidine 1.5 μM or Compound-3 1 μM). Inhibitor (Compound-3 or pafuramidine) concentrations ranged from 0 to 10,000 nM. The incubation time was 5 min for pafuramidine and 10 min for Compound-3. Incubation temperature was 37 °C. LC-MS/MS analysis was performed as described above for the levels of DB775 or M4 (carboxylic acid metabolite of Compound-3).

[3] = Metabolite identification by UPLC/Triple TOF MS in rat intestinal microsomes; assay type: in vitro ADME; set-up: key: √: metabolites were detected by high-resolution mass spectrometry; conditions: Compound-3 10 μM, NADPH, 60 min, HRMS
[4] = Metabolite identification by UPLC/Triple TOF MS in human hepatocytes; assay type: in vitro ADME; set-up: key: √: metabolites were detected by high-resolution mass spectrometry; conditions: Compound-3 10 μM, 1 × 10^6 cell/mL, 60 min, HRMS
Protocol: (§1) For metabolite identification, a higher concentration of Compound-3 (10 μM) was incubated with liver microsomes (1 mg/mL) in the presence of NADPH (1 mM) and primary human hepatocytes at a density of 1 × 10^6 cell/mL. Samples were collected at 0 min and 60 min with the addition of ice-cold acetonitrile. After vortexing and centrifugation, the supernatant was transferred into a new tube and evaporated to dryness. The samples were then reconstituted in 100 μL of water and methanol (v/v, 9:1). An aliquot of 10 μL of reconstituted solution was injected into UPLC/Triple TOF 5600^+ MS for metabolite identification.
(§2) Identification of Compound-3 metabolites was carried out using Acquity UPLC/Triple TOF 5600^+ system. Chromatographic separation for Compound-3 and its metabolites were achieved by an Acquity UPLC HSS T3 column (100 × 2.1 mm i.d., […]; Waters Corp.) maintained at 40 °C. The mobile phase was a mixture of 0.02% formic acid in 5 mM ammonium acetate (A) and methanol (B). The gradient elution was started from 2% B and maintained for 4 min, then increased linearly to 75% B over the next 4 min and maintained for 8 min. […] The flow rate was 0.4 mL/min and the eluent was monitored by UV detection at 280 nm.
(§3) For mass detection, a Triple TOF 5600^+ mass spectrometer (AB Sciex, Framingham, MA, USA) was operated in positive ion electrospray (ES-positive) mode with the source temperature at 500 °C and scan range from m/z 100 to 1000 Da. Other parameters were set as follows: ion spray voltage, 5500 V; decluttering potential, 80 V; curtain gas, 40 psi; ion source gas 1, 55 psi; and ion source gas 2, 50 psi. Collision energies of 25 and 65 eV were used for TOF MS and product ion scans, respectively, and a collision energy spread of 20 was used in the MS/MS analysis. Information-dependent acquisition (IDA), together with real-time multiple mass defect filter, was used to trigger acquisition of MS/MS spectra.

[5] = Metabolite identification by UPLC/Triple TOF MS in human intestinal microsomes; assay type: in vitro ADME; set-up: key: √: metabolites were detected by high-resolution mass spectrometry; conditions: Compound-3 10 μM, NADPH, 60 min, HRMS
Protocol: as §1, §2, §3

[6] = Metabolite identification by UPLC/Triple TOF MS in human liver microsomes; assay type: in vitro ADME; set-up: key: √: metabolites were detected by high-resolution mass spectrometry; conditions: Compound-3 10 μM, 1 mg/mL microsomes, NADPH, 60 min, HRMS
Protocol: as §1, §2, §3

CYP4F2 [7] = biological target: T1, CYP4F2; experiment: Reaction phenotyping with recombinant CYP4F2; assay type: in vitro ADME; conditions: Compound-3 1 μM with recombinant CYP4F2 50 nM, NADPH, 37 °C (Figure S2)
Protocol: Compound-3 was incubated separately with human cDNA-expressed cytochrome P450s (CYP1A2, CYP2B6, CYP2C8, CYP2C9, CYP2C19, CYP2D6, CYP3A4, CYP4A11, CYP4F2 and CYP4F3). The incubation mixtures contained individual CYP isoenzymes (50 nM), potassium phosphate buffer (100 mM, pH 7.4), NADPH (1 mM), and Compound-3 (1 µM). The final volume of the incubation mixture was 50 µL. Before the start of the incubation, reaction mixtures were warmed up at 37 °C for 10 min. The reaction was initiated with the addition of NADPH and the incubations were performed at 37 °C in a water bath. […] Control samples without NADPH but substrates were included. The samples were then centrifuged and aliquots of 10 μL of the supernatants were transferred onto LC-MS/MS for the analysis of Compound-3 and M4 (carboxylic acid) levels.
The following are available online. Figure S1. Gemcitabine Formation from Compound-3 Hydrolysis as a function of alkaline phosphatase protein concentrations. Compound-3 (1 μM) was incubated with alkaline phosphatase concentrations ranging from 0.01–0.2 mg/mL at 37 °C (n = 3). Figure S2. Metabolites of Compound-3 in human recombinant CYP4F2. Compound-3 (1 μM) was incubated with human recombinant CYP4F2 (50 nM) in the presence of NADPH at 37 °C (n = 3).

[8] = Metabolite identification by UPLC/Triple TOF MS in rat liver microsomes; assay type: in vitro ADME; set-up: key: √: metabolites were detected by high-resolution mass spectrometry; conditions: Compound-3 10 μM, 1 mg/mL microsomes, NADPH, 60 min, HRMS
Protocol: as §1, §2, §3

alkaline phosphatase = experiment: Hydrolysis of Compound-3 by alkaline phosphatase (gemcitabine formation); assay type: in vitro ADME; set-up: key to detected in matrix ALP: √: metabolites were detected by high-resolution mass spectrometry; conditions: incubation of Compound-3 with alkaline phosphatase, HRMS
Protocol: Compound-3 was incubated with alkaline phosphatase, and the linearity of gemcitabine formation as a function of time and protein concentration was first examined. The reaction mixtures consisted of alkaline phosphatase, 100 mM phosphate buffer (pH 7.4) and Compound-3 (10 μM). The final volume of the incubation mixture was 200 μL. The mixture was warmed up at 37 °C for 2 min prior to the initiation of the reaction with the addition of the enzyme. At specified time points, 25 μL of the incubation mixtures was added to 100 μL cold acetonitrile containing the internal standard to terminate the reaction. Levels of gemcitabine were determined by LC-MS/MS. […] Compound-3 was tested at concentrations ranging from 0 to 200 μM. Kinetic parameters of Compound-3 in alkaline phosphatase were calculated using GraphPad Prism (Version 6.0, GraphPad Software Inc., San Diego, CA) and nonlinear regression analysis. Equation used was as the following (the Michaelis-Menten equation):V = (Vmax × [S])/(Km + [S])(1) where V is the rate of metabolite formation, Vmax is the maximum velocity, Km is the Michaelis constant (substrate concentration at 0.5 Vmax), and [S] is the substrate concentration.

[9] = substrate: CCCCCCCCCCCCCCCCCCOCCOP(=O)(O)OCC1OC(n2ccc(N)nc2=O)C(F)(F)C1O; experiment: Formation kinetics of M4 (carboxylic acid) from Compound-3 by CYP4F2; assay type: in vitro ADME, human; conditions: other: CYP4F2 10 nM, 10 min, substrate inhibition model, estimated; pH 7.4; 37.0 °C
Protocol: To investigate the formation kinetics of carboxylic acid metabolite (M4) from Compound-3, varying concentrations of Compound-3 (0–10 µM) were incubated with 10 nM CYP4F2 and 1 mM NADPH in 100 mM phosphate buffer (pH 7.4). The reactions were carried at 37 °C for 10 min and terminated with the addition of ice-cold acetonitrile containing the internal standard. Samples were then centrifuged, and aliquots of 10 μL of the supernatants were analyzed by LC-MS/MS for M4 levels.
Kinetic parameters of Compound-3 in recombinant human CYP4F2 were calculated using Enzyme Kinetics Modules of SigmaPlot (Version 14.0, Systat Software, San Jose, CA, USA). An uncompetitive substrate inhibition equation was also used:V = (Vmax × [S])/{Km + [S] × (1 + [S]/Ki)}(2) where Ki is the disassociation constant describing the inhibitor-enzyme interaction.

detected in matrix RIM [3]: √ | detected in matrix Human Hepatocytes [4]: √ | detected in matrix HIM [5]: √ | detected in matrix HLM [6]: √ | incubation time at which metabolite formation peaked (CYP4F2 [7]): 5 min
Molecule: Nc1ccn(C2OC(COP(=O)(O)OCCOCCCCCCCCCCCCCCCCCC=O)C(O)C2(F)F)c(=O)n1 (stereo not shown) [Compound M2]

detected in matrix RLM [8]: √ | detected in matrix RIM [3]: √ | detected in matrix Human Hepatocytes [4]: √ | detected in matrix HIM [5]: √ | detected in matrix HLM [6]: √ | incubation time at which metabolite formation peaked (CYP4F2 [7]): 60 min
Molecule: Nc1ccn(C2OC(COP(=O)(O)OCCOCCCCCCCCCCCCCCCCCC(=O)O)C(O)C2(F)F)c(=O)n1 (stereo not shown) [Compound M4]

detected in matrix RLM [8]: √ | detected in matrix RIM [3]: √ | detected in matrix Human Hepatocytes [4]: √ | detected in matrix HIM [5]: √ | detected in matrix HLM [6]: √ | incubation time at which metabolite formation peaked (CYP4F2 [7]): 5 min
Molecule: Nc1ccn(C2OC(COP(=O)(O)OCCOCCCCCCCCCCCCCCCCCCO)C(O)C2(F)F)c(=O)n1 (stereo not shown) [Compound M3]

Further lines, the molecule ahead of its results:

Molecule: CC(=O)N1CCN(c2ccc(OCC3COC(Cn4ccnc4)(c4ccc(Cl)cc4Cl)O3)cc2)CC1 (stereo not shown) [ketoconazole]
inhibition of Compound-3 metabolism in HLM [1]: moderate inhibition

Molecule: CONC(=N)c1ccc(-c2ccc(-c3ccc(C(=N)NOC)cc3)o2)cc1 [pafuramidine, reference compound]
IC50 (CYP4F2 [2]): 240 nM

Molecule: Nc1ccn([C@@H]2O[C@H](CO)[C@@H](O)C2(F)F)c(=O)n1 [Gemcitabine, 2′,2′-difluorodeoxycytidine]
detected in matrix ALP (alkaline phosphatase): √

Molecule: O=c1c(O)c(-c2ccc(O)c(O)c2)oc2cc(O)cc(O)c12 [quercetin]
inhibition of Compound-3 metabolism in HLM [1]: moderate inhibition

B1: CYP4F2 (Homo sapiens) (protein)
chain: T1 sequence (P78329 5-520)
notes: purchased Corning Gentest
Km [9]: 0.69 µM
